From US12502374B2, “Composition for preventing, alleviating, or treating inflammatory disease containing isookanin or salt thereof as active ingredient” (BioSpectrum, Inc., priority 2020, dated 2025)

How the values were obtained:
HMEC-1 [1] = assay: PGE2-induced vascular endothelial cell migration (scratch assay); format: cell-based, human; details: 20 μM, 24 hours; compared with 100 ng/ml VEGF
Procedure: Human vascular endothelial cells (HMEC-1) were seeded in a 12-well plate at a density of 2×10^5 cells per well and cultured in an incubator for 24 hours at 37° C. under 5% CO2. After the cells in each well were grown to 80% confluency, the central part of each well was scratched using a yellow pipette tip. Next, each well was pretreated with each concentration of isookanin for 2 hours and then treated with 20 μM PGE2 and incubated for 24 hours. As a negative control, 100 ng/ml of VEGF was used. After 24 hours of incubation, the degree of vascular cell migration was observed using a microscope, and the results were photographed with a microscope camera and shown in FIG. 9.

HMEC-1 [2] = assay: PGE2-induced vascular endothelial cell tube formation on Matrigel; format: cell-based, human; details: 20 μM, 24 hours; compared with 100 ng/ml VEGF
Procedure: Human vascular endothelial cells (HMEC-1) were seeded in a Matrigel-coated 24-well plate at a density of 1.2×10^5 cells per well, and each well was pretreated with 10 ppm of isookanin for 2 hours. Next, each well was treated with PGE2 at a concentration of 20 μM and incubated for 24 hours. As a negative control, 100 ng/ml of VEGF was used. After 24 hours of incubation, the degree of vascular cell tube formation was observed using a microscope, and the results were photographed with a microscope camera and analyzed with Image J, and are shown in FIGS. 10 and 11.

human skin [3] = assay: Human skin safety, repeated insult patch test (Finn chamber); format: in vivo; details: 30 healthy adults
Procedure: In order to confirm that the isookanin according to the present invention is safe for human skin, a skin safety verification test was performed. To this end, a repeated insult patch test was conducted.
Nourishing creams containing the isookanin in amounts of 0.1%, 0.5% and 1%, respectively, were prepared. Specifically, a water phase containing purified water, triethanolamine and propylene glycol was dissolved by heating to 70° C. and then emulsified by adding a solution obtained by dissolving beeswax, liquid paraffin, an oil component, an emulsifier and a preservative by heating to 70° C. After completion of emulsification, the solution was cooled to 45° C., and the isookanin was added thereto in amounts of 0.1%, 0.5% and 1% and dispersed therein, followed by cooling to 30° C. As the content of the isookanin was increased from 0.1% to 0.5% and 1%, the content of liquid paraffin was decreased from 9.91% to 9.51% and 9.01%, respectively, thereby preparing nourishing creams.
Using the nourishing creams prepared as described above, a repeated insult patch test was conducted on the upper arm areas of 30 healthy adults every other day for a total of 9 times for 24 hours per time to determine whether the isookanin irritated the skin.
The patch test was performed using a Finn chamber (Epitest Ltd., Finland). 15 μl of each of the external skin preparations was dropped into the chamber, and then the patch test was performed.
[Equation 1] Average degree of reaction=[[(reaction index×degree of reaction)/(total number of subjects×highest score (4)]×100]÷number of tests (9)
In the degree of reaction, ± represents a score of 1, + represents a score of 2, and ++ represents a score of 4. When the average degree of reaction is less than 3, the corresponding composition is determined to be safe.

human skin [4] = assay: as above; format: in vivo; details: 30 healthy adults; 10th patch test; dash = no subject

| Compound | effect on vascular endothelial cell migration (HMEC-1 [1]) | effect on vascular cell tube formation (HMEC-1 [2]) | Average degree of reaction (human skin [3]; upper arm, 24 hours per patch, Equation 1, less than 3 is determined to be safe) | Number of subjects showing reaction (±, +, ++), 1st (human skin [3]; 1st patch test, dash = no subject) | Number of subjects showing reaction (±, +, ++), 2nd (human skin [3]; 2nd patch test, dash = no subject) | Number of subjects showing reaction (±, +, ++), 5th (human skin [3]; 5th patch test, dash = no subject) | Number of subjects showing reaction (±, +, ++), 6th (human skin [3]; 6th patch test, dash = no subject) | Number of subjects showing reaction (±, +, ++), 7th (human skin [3]; 7th patch test, dash = no subject) | Number of subjects showing reaction (±, +, ++), 8th (human skin [3]; 8th patch test, dash = no subject) | Number of subjects showing reaction (±, +, ++), column between 3rd and 5th (human skin [3]; dash = no subject) | Number of subjects showing reaction (±, +, ++), 10th (human skin [4]) |
| --- | --- | --- | --- | --- | --- | --- | --- | --- | --- | --- | --- |
| CCCCC[C@H](O)/C=C/[C@H]1[C@H](O)CC(=O)[C@@H]1C/C=C\CCCC(=O)O [PGE2, reference compound] | promoted vascular endothelial cell migration, similar to VEGF | promoted vascular cell tube formation, similar to VEGF |  |  |  |  |  |  |  |  |  |
| CC(C)=CCC/C(C)=C/CC/C(C)=C/CC/C=C(\C)CC/C=C(\C)CCC=C(C)C [squalene] |  |  | 0.09 | - - - | - - - | - - - | - - | - - - | - - - | - - - | - - - |
